Measured values as given in patent US11319306B2, “Compositions and methods for treating neurodegenerative diseases” (Azevan Pharmaceuticals, Inc., priority 2014, dated 2022).

Target: T1, human V1a receptor (Homo sapiens, UniProt P37288)
T1 construct: host or cells: CHO cells (hV1a cell line)
Experiment: Human vasopressin V1a receptor binding assay (3H-AVP competition, hV1a CHO cells)
Settings: 3H-AVP competition, CHO cells expressing human V1a; for Ki: read-out: V1a Ki; for IC50: read-out: V1a Binding Affinity IC50
Description: Human vasopression V1a receptor binding assay. A cell line expressing the human V1a receptor in CHO cells (henceforth referred to as the hV1a cell line) was obtained from Dr. Michael Brownstein, NIMH, Bethesda, Md., USA. The hV1a cDNA sequence is described by Thibonnier et al., Journal of Biological Chemistry, 269, 3304-3310 (1994), and the expression method was the same as described by Morel et al. (1992). The hV1a cell line was grown in alpha-MEM with 10% fetal bovine serum and 250 ug/ml G418 (Gibco, Grand Island, N.Y., USA). For competitive binding assay, hV1a cells were plated into 6-well culture plate at 1:10 dilution from a confluency flask, and maintained in culture for at least two days. Culture medium was then removed, cells were washed with 2 ml binding buffer (25 mM Hepes, 0.25% BSA, 1×DMEM, PH=7.0). To each well, 990 μl binding buffer containing InM 3H-AVP was added, and followed by 10 μl series diluted Example compounds dissolved in DMSO. […] 100 nM cold AVP (Sigma) was used to assess non-specific binding. Cells were incubated for 45 minutes at 37° C., assay mixture was removed and each well was washed three times with PBS (pH=7.4). 1 ml 2% SDS was added per well and plates were let sit for 30 minutes. The whole content in a well was transferred to a scintillation vial. Each well was rinsed with 0.5 ml PBS which was then added to the corresponding vial. Scintillation fluid (Ecoscint, National Diagnostics, Atlanta, Ga.) was then added at 3 ml per vial. Samples were counted in a liquid scintillation counter (Beckman LS3801). IC50 values were calculated by Prism Curve fitting software.
All of the alkanedioic esters and amides exemplified in the foregoing examples dissolved in DMSO were tested in this assay. Binding curves were generated according to methods described by Thibonnier et al. (1994). [^3H]-AVP was added to the hV1a cell cultures followed by 10-fold dilutions of each test compound.

T1 sequence (P37288 whole entry): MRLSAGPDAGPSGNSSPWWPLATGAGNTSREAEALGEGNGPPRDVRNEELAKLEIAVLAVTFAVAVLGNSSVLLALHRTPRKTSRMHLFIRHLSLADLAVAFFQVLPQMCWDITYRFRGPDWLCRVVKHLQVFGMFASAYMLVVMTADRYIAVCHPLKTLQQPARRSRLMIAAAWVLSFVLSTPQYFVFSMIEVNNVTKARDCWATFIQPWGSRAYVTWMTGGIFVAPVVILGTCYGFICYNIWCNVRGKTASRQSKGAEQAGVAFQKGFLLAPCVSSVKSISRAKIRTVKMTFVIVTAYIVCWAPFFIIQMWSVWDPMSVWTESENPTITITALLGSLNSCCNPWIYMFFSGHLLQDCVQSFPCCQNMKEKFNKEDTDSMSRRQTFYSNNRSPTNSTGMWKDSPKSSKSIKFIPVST

SMILES | Ki | IC50
O=C(NC(c1ccccc1)C(F)(F)F)C(CC(=O)N1CCC(N2CCCCC2)CC1)N1C(=O)C(N2C(=O)OCC2c2ccccc2)C1C=Cc1ccccc1 (single isomer, unassigned) [Example 623] | 0.85 nM | –
O=C(NCc1cccc(C(F)(F)F)c1)C(CCC(=O)N1CCN(Cc2ccccc2)CC1)N1C(=O)C(N2C(=O)OCC2c2ccccc2)C1C=Cc1ccccc1 (centres unmarked) [Example 95] | 1.08 nM | 1.76 nM
N#Cc1cccc(/C=C/[C@@H]2[C@H](N3C(=O)OC[C@@H]3c3ccccc3)C(=O)N2[C@@H](CCC(=O)N2CCN(C3CCCCC3)CC2)C(=O)N[C@@H]2CCCc3ccccc32)c1 [Example 248] | 3.3 nM | 5.3 nM
O=C(NCc1cccc(C(F)(F)F)c1)C(CCC(=O)N1CCN(C2CCCCC2)CC1)N1C(=O)C(N2C(=O)OCC2c2ccccc2)C1C=Cc1ccccc1 (centres unmarked) [Example 139] | 5.84 nM | 9.5 nM
O=C(NCc1cccc(C(F)(F)F)c1)[C@H](CC(=O)N1CCCN(Cc2ccccc2)CC1)N1C(=O)[C@@H](N2C(=O)OC[C@@H]2c2ccccc2)[C@H]1/C=C/c1ccccc1 [Example 82] | 5.12 nM | –
O=C(C(COCc1ccccc1)N1C(=O)C(N2C(=O)OCC2c2ccccc2)C1C=Cc1ccccc1)N1CCC(CCN2CCCCC2)CC1 (centres unmarked) [Example 233] | 0.34 nM | 0.56 nM
O=C(N[C@@H]1CCCc2ccccc21)[C@H](CCC(=O)N1CCN(C2CCCC2)CC1)N1C(=O)[C@@H](N2C(=O)OC[C@@H]2c2ccccc2)[C@H]1/C=C/c1ccccc1 [Example 241] | 1.24 nM | 2 nM
O=C(NCc1cccc(C(F)(F)F)c1)C(CCC(=O)N1CCN(CCc2ccccc2)CC1)N1C(=O)C(N2C(=O)OCC2c2ccccc2)C1C=Cc1ccccc1 (centres unmarked) [Example 136] | 33 nM | 11 nM
CC(C)N1CCN(C(=O)C(C(=O)NCc2cccc(C(F)(F)F)c2)N2C(=O)[C@@H](N3C(=O)OC[C@@H]3c3ccccc3)[C@H]2/C=C/c2ccccc2)CC1 (mixture of isomers) [Example 41] | 18.2 nM | –
CC(NC(=O)C(CC(=O)N1CCC([N+]2([O-])CCCCC2)CC1)N1C(=O)C(N2C(=O)OCC2c2ccccc2)C1C=Cc1ccccc1)c1ccccc1 (centres unmarked) [Example 672] | 1.1 nM | –
COc1cccc(C(C)NC(=O)C(CCC(=O)N2CCN(C3CCCCC3)CC2)N2C(=O)C(N3C(=O)OCC3c3ccccc3)C2C=Cc2ccccc2)c1 (centres unmarked) [Example 203] | 1.5 nM | 2.46 nM
O=C(NCc1cccc(C(F)(F)F)c1)C(CCC(=O)N1CCN(CC2CCCCC2)CC1)N1C(=O)C(N2C(=O)OCC2c2ccccc2)C1C=Cc1ccccc1 (centres unmarked) [Example 120] | 0.46 nM | 0.75 nM
O=C(NCc1cccc(C(F)(F)F)c1)C(C(=O)N1CCC(N2CCCCC2)CC1)N1C(=O)C(N2C(=O)OCC2c2ccccc2)C1C=Cc1ccccc1 (centres unmarked) [Example 37] | 3.39 nM | 5.5 nM
O=C(NCc1cccc(C(F)(F)F)c1)C(CCC(=O)N1CCN(CCN2CCOCC2)CC1)N1C(=O)C(N2C(=O)OCC2c2ccccc2)C1C=Cc1ccccc1 (centres unmarked) [Example 112] | 0.8 nM | 1.34 nM
O=C(C(COCc1ccccc1)N1C(=O)C(N2C(=O)OCC2c2ccccc2)C1C=Cc1ccccc1)N1CCC(N2CCCCC2)CC1 (centres unmarked) [Example 232] | 0.84 nM | 1.37 nM
O=C(NCc1cccc(C(F)(F)F)c1)C(CCC(=O)N1CCN(C2CCCCC2)CC1)N1C(=O)C(N2C(=O)OCC2c2ccccc2)C1C(Cl)=Cc1ccccc1 (centres unmarked) [Example 226] | 0.3 nM | 0.49 nM
CCCCN1CCN(C(=O)C(C(=O)NCc2cccc(C(F)(F)F)c2)N2C(=O)C(N3C(=O)OCC3c3ccccc3)C2C=Cc2ccccc2)CC1 (centres unmarked) [Example 40] | 6.5 nM | 11 nM
O=C(NCc1cccc(C(F)(F)F)c1)[C@H](CCC(=O)N1CCN(N2CCCC2)CC1)N1C(=O)[C@@H](N2C(=O)OC[C@@H]2c2ccccc2)[C@H]1/C=C/c1ccccc1 [Example 91] | 1.99 nM | 3.24 nM
CC(C)N1CCN(C(=O)CCC(C(=O)NCc2cccc(C(F)(F)F)c2)N2C(=O)C(N3C(=O)OCC3c3ccccc3)C2C(Cl)=Cc2ccccc2)CC1 (centres unmarked) [Example 230] | 4.33 nM | 7.07 nM
O=C(N[C@@H]1CCCc2ccccc21)[C@H](CCC(=O)N1CCN(C2CCCCC2)CC1)N1C(=O)[C@@H](N2C(=O)OC[C@@H]2c2ccccc2)[C@H]1/C=C/c1cccc(Cl)c1 [Example 243] | 0.3 nM | 0.5 nM
O=C(N[C@@H]1CCCc2ccccc21)[C@H](CCC(=O)N1CCN(C2CCCCC2)CC1)N1C(=O)[C@@H](N2C(=O)OC[C@@H]2c2ccccc2)[C@H]1/C=C/c1cccc([N+](=O)[O-])c1 [Example 249] | 1 nM | 1.7 nM
O=C(CC[C@@H](C(=O)NCc1cccc(C(F)(F)F)c1)N1C(=O)[C@@H](N2C(=O)OC[C@@H]2c2ccccc2)[C@H]1/C=C/c1ccccc1)NCCN1CCCCC1 [Example 87] | – | 15 nM
CC(C)(C)OC(=O)CCC(C(=O)NCc1cccc(C(F)(F)F)c1)N1C(=O)C(N2C(=O)OCC2c2ccccc2)C1C=Cc1ccccc1 [Example 20, 2(S)-(tert-Butoxycarbonylethyl)-2-[3(S)-(4(S)-phenyloxazolidin-2-on-3-yl)-4(R)-(2-styryl)azetidin-2-on-1-yl]acetic acid N-(3-trifluoromethylbenzyl)amide] | – | 35 nM
O=C(N[C@@H]1CCCc2ccccc21)[C@H](CCC(=O)N1CCN(C2CCCCC2)CC1)N1C(=O)[C@@H](N2C(=O)OC[C@@H]2c2ccccc2)[C@H]1/C=C/c1cc(Cl)cc(Cl)c1 [Example 252] | 1.1 nM | 1.8 nM
O=C(NCc1cccc(C(F)(F)F)c1)C(C(=O)N1CCN(CCc2ccccc2)CC1)N1C(=O)[C@@H](N2C(=O)OC[C@@H]2c2ccccc2)[C@H]1/C=C/c1ccccc1 (mixture of isomers) [Example 38] | 85 nM | –

The next lines start with the values.

Ki | IC50 | SMILES
0.36 nM | 0.59 nM | CN(Cc1cccc(Cl)c1Cl)C(=O)C(CCC(=O)N1CCN(C2CCCCC2)CC1)N1C(=O)C(N2C(=O)OCC2c2ccccc2)C1C=Cc1ccccc1 (centres unmarked) [Example 221B]
7.2 nM | 11.6 nM | O=C(CCC(C(=O)NC1CCCc2ccccc21)N1C(=O)C(N2C(=O)OCC2c2ccccc2)C1C=Cc1ccccc1)NCCN1CCCCC1 (centres unmarked) [Example 221X]
51 nM | 83 nM | CC(C)(C)OC(=O)NC1CCN(C2CCN(C(=O)CCC(C(=O)NC3(c4ccccc4)CCCC3)N3C(=O)C(N4C(=O)OCC4c4ccccc4)C3C=Cc3ccccc3)CC2)C1 (centres unmarked) [Example 221AX]
1.79 nM | 2.93 nM | CCCN1CCN(C(=O)CCC(C(=O)NCc2cccc(C(F)(F)F)c2)N2C(=O)C(N3C(=O)OCC3c3ccccc3)C2C=Cc2ccccc2)CC1 (centres unmarked) [Example 120B]
7.9 nM | 12.9 nM | O=C(NCc1cccc(C(F)(F)F)c1)C(CC(=O)N1CCC(CCN2CCCCC2)CC1)N1C(=O)C(N2C(=O)OCC2c2ccccc2)C1C=Cc1ccccc1 (centres unmarked) [Example 134A]
1.66 nM | 2.7 nM | CCN1CCN(C(=O)CCC(C(=O)NC2CCCc3ccccc32)N2C(=O)C(N3C(=O)OCC3c3ccccc3)C2C=Cc2ccccc2)CC1 (centres unmarked) [Example 221BD]
9.9 nM | 16.2 nM | O=C(NCc1cccc(C(F)(F)F)c1)C(CCC(=O)N1CCC(CCN2CCCCC2)CC1)N1C(=O)C(N2C(=O)OCC2c2ccccc2)C1C=Cc1ccccc1 (centres unmarked) [Example 120A]
1.48 nM | 2.41 nM | CN(Cc1cccc(Br)c1)C(=O)C(CCC(=O)N1CCN(C2CCCCC2)CC1)N1C(=O)C(N2C(=O)OCC2c2ccccc2)C1C=Cc1ccccc1 (centres unmarked) [Example 221D]
27.5 nM | 44.8 nM | O=C(NCc1cccc(C(F)(F)F)c1)[C@@H](CC(=O)N1CCN(N2CCCC2)CC1)N1C(=O)[C@@H](N2C(=O)OC[C@@H]2c2ccccc2)[C@H]1/C=C/c1ccccc1 [Example 134B]
11.1 nM | 18.1 nM | O=C(NC(CCO)c1ccccc1)C(CCC(=O)N1CCN(C2CCCCC2)CC1)N1C(=O)C(N2C(=O)OCC2c2ccccc2)C1C=Cc1ccccc1 (centres unmarked) [Example 221Q]
12.4 nM | 20.2 nM | CN(Cc1cc(Cl)cc(Cl)c1)C(=O)C(CCC(=O)N1CCN(C2CCCCC2)CC1)N1C(=O)C(N2C(=O)OCC2c2ccccc2)C1C=Cc1ccccc1 (centres unmarked) [Example 221E]
35 nM | 56 nM | O=C(NC1CCCc2ccccc21)C(CCC(=O)N1CCN(CCCO)CC1)N1C(=O)C(N2C(=O)OCC2c2ccccc2)C1C=Cc1ccccc1 (centres unmarked) [Example 221BI]
1.17 nM | 1.77 nM | O=C(NCc1cccc(C(F)(F)F)c1)C(C(=O)N1CCC(CCN2CCCCC2)CC1)N1C(=O)C(N2C(=O)OCC2c2ccccc2)C1C=Cc1ccccc1 (centres unmarked) [Example 42A]
2.5 nM | 4 nM | O=C(NC1(c2ccccc2F)CCCC1)C(CCC(=O)N1CCN(C2CCCCC2)CC1)N1C(=O)C(N2C(=O)OCC2c2ccccc2)C1C=Cc1ccccc1 (centres unmarked) [Example 221H]
